Values quoted from earlier work in patent US8960128B2, “Topical anesthetic composition” (Animal Ethics Pty Ltd, priority 2005, dated 2015).

Key:
[1] = typically up to about; depending on the method of administration
[2] = sheep, topically applied

Row | SMILES | duration of anesthesia [1] [h] | total dose that should not be exceeded [2] [mg/kg]
1 | CCCCN1CCCCC1C(=O)Nc1c(C)cccc1C (centres unmarked) [bupivacaine] | 6 to 12 | –
2 | CCN(CC)CC(=O)Nc1c(C)cccc1C [lignocaine] | – | ≤ 50
